compound: CN1CCC(CC1)OC2=CC(=C(C=C2)NC3=NC=C4C(=N3)N(C(=O)N4C)C5CCCC5)OC [AZ3146] + COc1cccc2cc(-c3nc([C@H]4CC[C@H](C(=O)O)CC4)n4ncnc(N)c34)[nH]c12 [OSI-027] (partner 0.5 µM); test: relative viability (nuclei count vs DMSO), 5 days (fraction); higher = more cells survive; conditions: first compound 8 µM
How it was run: (§1)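 Lung cancer cell lines were pin-tool dosed in 1536-well plates on the day after seeding, with either a lone drug or a fixed anchor-drug dose plus five library-drug doses (not always all listed) in √10 steps. Nuclei were counted on 4× images after 5 days. Relative viability is the ratio of treated-well to vehicle-well nuclei counts, with each value a median of duplicate plates.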

Cell Line	relative viability
COR-L23	0.769
LCLC-103H	0.501
LXF-289	0.77
SW 900	0.387
NCI-H1648	0.302
NCI-H1395	0.633
NCI-H441	0.529
NCI-H1650	0.395
NCI-H1793	0.247
NCI-H2170	0.713

compound: CCOC(=O)CCNc1cc(N2CCc3ccccc3CC2)nc(-c2ccccn2)n1 [GSK-J4] + CS(=O)(=O)CCNCc1ccc(-c2ccc3ncnc(Nc4ccc(OCc5cccc(F)c5)c(Cl)c4)c3c2)o1 [Lapatinib] (partner 2 µM); test: as above; conditions: first compound 0.5 µM
How it was run: as §1

Cell Line	relative viability
PC-14	0.351
NCI-H1666	0.576
EKVX	0.216
NCI-H1755	0.96
NCI-H2023	0.827
HCC-78	0.707
SK-LU-1	0.758
PC-3 [JPC-3]	0.47
LOU-NH91	0.688
NCI-H647	1.01
NCI-H23	0.994
EPLC-272H	0.981
NCI-H2126	0.817
HCC-44	0.964
NCI-H1734	0.977
NCI-H650	0.841

Cell Line	relative viability
LK-2	1.04
NCI-H2228	1.11
NCI-H1944	0.8
HARA	0.729
Calu-6	1
COR-L23	0.881
LXF-289	0.899
EBC-1	0.199
A549	0.952
NCI-H1299	0.861
NCI-H1395	1.22
IA-LM	0.767
NCI-H1703	0.937
NCI-H1650	0.751
NCI-H1793	0.71
NCI-H2170	0.311

same assay, conditions: first compound 1.581 µM

Cell Line	relative viability
PC-14	0.228
EKVX	0.205
NCI-H1755	0.905
NCI-H2023	0.0641
HCC-78	0.684
SK-LU-1	0.776
PC-3 [JPC-3]	0.385
LOU-NH91	0.754
NCI-H647	0.954
NCI-H2126	0.657
HCC-44	0.647
NCI-H1734	0.802
NCI-H650	0.579
LK-2	0.905
NCI-H2228	0.598
NCI-H1944	0.795
HARA	0.706
Calu-6	1.11
COR-L23	0.917
LXF-289	0.821
EBC-1	0.244
A549	1.03
NCI-H1299	0.924
NCI-H1395	0.955
IA-LM	0.598
NCI-H1703	0.912
NCI-H1650	0.174
NCI-H1793	0.557
NCI-H2170	0.247

same assay, conditions: first compound 5 µM

Cell Line	relative viability
PC-14	0.344
NCI-H1666	0.7
EKVX	0.261
NCI-H1755	0.673
NCI-H2023	0.727
HCC-78	0.846
SK-LU-1	0.668
PC-3 [JPC-3]	0.578
LOU-NH91	0.626
NCI-H647	0.94
NCI-H23	0.772
EPLC-272H	0.919
NCI-H2126	0.854
HCC-44	0.909
NCI-H1734	0.74
NCI-H650	0.614
LK-2	1.12
NCI-H2228	1.17
NCI-H1944	0.78
Calu-6	1.05
LXF-289	0.907
EBC-1	0.243
NCI-H1299	0.851
NCI-H1395	0.759
IA-LM	0.862
NCI-H1703	0.84
NCI-H1650	0.731
NCI-H1793	0.621
NCI-H2170	0.265

same assay, conditions: first compound 15.81 µM

Cell Line	relative viability
PC-14	0.249
NCI-H1666	0.567
EKVX	0.197
NCI-H1755	0.923
NCI-H2023	0.641
SK-LU-1	0.616
PC-3 [JPC-3]	0.43
LOU-NH91	0.625
NCI-H647	0.977
NCI-H23	0.778
EPLC-272H	0.89
NCI-H2126	0.69
HCC-44	1.07
NCI-H1734	0.893
NCI-H650	0.783
LK-2	0.646

Cell Line	relative viability
NCI-H2228	0.943
NCI-H1944	0.665
HARA	0.699
Calu-6	1.03
COR-L23	0.927
LXF-289	0.934
EBC-1	0.235
A549	1.1
NCI-H1299	0.953
NCI-H1395	0.883
IA-LM	0.624
NCI-H1703	1.11
NCI-H1650	0.634
NCI-H1793	0.404
NCI-H2170	0.261

same assay, conditions: first compound 50 µM

Cell Line	relative viability
PC-14	0.323
NCI-H1666	0.382
EKVX	0.171
NCI-H1755	0.917
NCI-H2023	0.474
HCC-78	0.738
SK-LU-1	0.585
PC-3 [JPC-3]	0.427
LOU-NH91	0.64
NCI-H647	0.815
NCI-H23	0.674
EPLC-272H	0.679
NCI-H2126	0.59
HCC-44	0.957
NCI-H1734	0.725
NCI-H650	0.614
LK-2	0.885
NCI-H2228	0.938
NCI-H1944	0.787
HARA	0.554
Calu-6	1.04
COR-L23	0.615
LXF-289	0.866
EBC-1	0.209
A549	0.902
NCI-H1299	0.875
NCI-H1395	0.648

Reference: the supplement of paper PMC10307832
